In paper PMC9598880, “Activity of a Novel Anti-Inflammatory Agent F-3,6′-dithiopomalidomide as a Treatment for Traumatic Brain Injury” (Biomedicines, 2022) one finds IC50 data, which are given here for one compound.

This assay has as its target T1, cereblon (Homo sapiens, UniProt Q96SW2).
T1 construct: gene CRBN; CRBN/DDB1−CUL4A−Rbx1 complex (BPS Bioscience catalog no. 79770); with DDB1−CUL4A−Rbx1; BRD3
In words: AlphaScreen bead-based cereblon/BRD3 binding assay (called FRET in the text).

T1 sequence (Q96SW2 whole entry): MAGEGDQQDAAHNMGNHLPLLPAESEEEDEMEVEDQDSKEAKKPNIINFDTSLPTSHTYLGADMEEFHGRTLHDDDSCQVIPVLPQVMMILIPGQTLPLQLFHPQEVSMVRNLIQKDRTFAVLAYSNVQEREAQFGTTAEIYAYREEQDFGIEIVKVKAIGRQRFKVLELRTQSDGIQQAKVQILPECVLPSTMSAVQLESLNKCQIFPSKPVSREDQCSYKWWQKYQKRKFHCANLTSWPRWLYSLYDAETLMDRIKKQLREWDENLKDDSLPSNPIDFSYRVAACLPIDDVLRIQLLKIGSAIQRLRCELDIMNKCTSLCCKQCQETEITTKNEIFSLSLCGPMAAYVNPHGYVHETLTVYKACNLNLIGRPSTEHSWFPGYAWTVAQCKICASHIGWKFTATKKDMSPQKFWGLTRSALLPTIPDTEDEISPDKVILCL
T1 sequence (Q16531 2-1140 partner): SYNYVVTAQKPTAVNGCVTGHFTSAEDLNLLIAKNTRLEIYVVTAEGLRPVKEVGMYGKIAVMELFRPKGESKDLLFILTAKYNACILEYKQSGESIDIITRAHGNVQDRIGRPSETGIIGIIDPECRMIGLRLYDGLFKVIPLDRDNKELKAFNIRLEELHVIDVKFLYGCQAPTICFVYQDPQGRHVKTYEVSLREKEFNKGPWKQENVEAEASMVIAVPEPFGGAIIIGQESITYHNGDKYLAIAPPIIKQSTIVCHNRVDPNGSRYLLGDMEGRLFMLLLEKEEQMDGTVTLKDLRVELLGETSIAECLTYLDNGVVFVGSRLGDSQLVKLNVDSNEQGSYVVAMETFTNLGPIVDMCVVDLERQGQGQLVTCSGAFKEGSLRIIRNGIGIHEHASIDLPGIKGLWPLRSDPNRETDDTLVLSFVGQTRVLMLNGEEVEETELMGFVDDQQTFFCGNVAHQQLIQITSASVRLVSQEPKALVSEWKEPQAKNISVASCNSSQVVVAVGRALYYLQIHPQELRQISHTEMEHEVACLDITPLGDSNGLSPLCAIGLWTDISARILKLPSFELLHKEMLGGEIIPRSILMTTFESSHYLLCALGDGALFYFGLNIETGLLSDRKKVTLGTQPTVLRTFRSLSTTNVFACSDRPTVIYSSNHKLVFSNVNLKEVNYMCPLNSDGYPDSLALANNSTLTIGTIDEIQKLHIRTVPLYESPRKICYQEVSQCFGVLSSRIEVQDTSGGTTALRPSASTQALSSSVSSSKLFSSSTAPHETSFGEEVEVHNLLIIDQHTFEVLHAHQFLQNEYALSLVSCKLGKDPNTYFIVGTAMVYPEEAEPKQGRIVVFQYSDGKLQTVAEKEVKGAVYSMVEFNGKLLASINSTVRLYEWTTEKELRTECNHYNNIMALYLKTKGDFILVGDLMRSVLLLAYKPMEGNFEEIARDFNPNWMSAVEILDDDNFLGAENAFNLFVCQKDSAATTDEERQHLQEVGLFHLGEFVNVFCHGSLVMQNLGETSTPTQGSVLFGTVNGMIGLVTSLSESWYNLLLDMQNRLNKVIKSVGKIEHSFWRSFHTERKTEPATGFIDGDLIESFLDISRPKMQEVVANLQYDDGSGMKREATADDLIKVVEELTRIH
T1 sequence (Q13619 whole entry partner): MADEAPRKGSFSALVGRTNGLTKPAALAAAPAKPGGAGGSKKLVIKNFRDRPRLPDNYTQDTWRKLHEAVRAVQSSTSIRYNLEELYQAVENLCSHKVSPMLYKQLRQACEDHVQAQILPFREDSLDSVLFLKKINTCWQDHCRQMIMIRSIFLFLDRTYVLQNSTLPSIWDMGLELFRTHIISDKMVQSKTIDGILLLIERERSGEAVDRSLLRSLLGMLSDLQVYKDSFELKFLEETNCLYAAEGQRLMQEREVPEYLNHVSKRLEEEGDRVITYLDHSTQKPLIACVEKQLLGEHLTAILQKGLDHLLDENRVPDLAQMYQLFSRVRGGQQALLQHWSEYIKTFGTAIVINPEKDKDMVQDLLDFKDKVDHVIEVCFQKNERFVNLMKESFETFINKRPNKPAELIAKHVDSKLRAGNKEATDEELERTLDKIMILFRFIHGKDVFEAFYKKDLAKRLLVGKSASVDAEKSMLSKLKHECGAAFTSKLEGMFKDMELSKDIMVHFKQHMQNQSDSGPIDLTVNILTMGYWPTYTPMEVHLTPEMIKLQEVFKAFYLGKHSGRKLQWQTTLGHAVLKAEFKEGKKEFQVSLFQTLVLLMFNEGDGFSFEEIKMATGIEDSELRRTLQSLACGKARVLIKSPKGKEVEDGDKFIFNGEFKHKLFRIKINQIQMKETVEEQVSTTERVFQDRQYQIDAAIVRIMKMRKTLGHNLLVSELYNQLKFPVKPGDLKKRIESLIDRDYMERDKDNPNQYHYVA
T1 sequence (P62877 whole entry partner): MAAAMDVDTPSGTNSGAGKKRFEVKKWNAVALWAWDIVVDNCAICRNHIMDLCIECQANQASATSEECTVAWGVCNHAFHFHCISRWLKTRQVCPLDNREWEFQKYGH

For `Nc1ccc(F)c2c1C(=S)N(C1CCC(=S)NC1=O)C2=O` (stereo not shown) [F-3,6′-DP], the IC50 came out at 2.66 µM.
